According to a melting point compilation (Tetko et al.; mined from patent text by program, amines drawn as free bases though some values may be those of a salt):

Compared with `Nc1nc(-c2cc(Cl)ccc2Cl)nc(N2CCC(=O)CC2)n1`, `OC1CCN(c2ncc3ncnc(Nc4ccc(F)c(Cl)c4)c3n2)CC1` is higher in melting point: 223 to 225 °C for the first, 243 to 246 °C for the second.

First: COc1cccc(CN2C(=O)N(c3cnn(Cc4c(C)noc4C)c3)C(=O)C2(C)C)c1
Second: CCc1nc2c(N)nc3cc(-c4cccnc4)ccc3c2n1CC1CCN(C(=O)OC(C)(C)C)CC1
The melting point of the first is lower: 107 to 108 °C for the first, 229 to 231 °C for the second.

Compared with `Cc1cc(N2CCc3ccccc32)nc(N)n1`, `CN1Cc2c(I)ncn2-c2ccccc2C1=O` is lower in melting point: 242 to 244 °C for the first, 174 to 176 °C for the second.

First: Cn1nc(C#N)c2ccccc21
Second: COC(=O)c1cnnc2c(C)cccc12
The melting point of the first is lower: 73 °C for the first, 90 to 91 °C for the second.

First: C1=C(c2ccccc2)CCN(Cc2cncc(-c3ccccc3)c2)C1
Second: COC(=O)CS(=O)(=O)N1CC=C(c2ccc(-c3ccccc3)c(OC)c2)CC1
The melting point of the first is lower: 80 to 82 °C for the first, 92 to 95 °C for the second.

Compared with `Cc1cc(C2=CO[C@@](c3cc(Cl)cc(Cl)c3)(C(F)(F)F)C2)ccc1C(=O)NCC(=O)NCC(F)(F)F`, `O=C(NCCO)/C(=C/c1ccc(OC(F)(F)F)cc1)NC(=O)c1ccc(OCCCC(F)(F)F)cc1` is higher in melting point: 120 to 155 °C for the first, 160 to 163 °C for the second.

First: NCC1Cc2cc(-c3cccc(F)c3)cc(F)c2O1 (configuration not stated)
Second: Cn1nc(-c2cnc(N)nc2-c2ccc(F)c(F)c2)ccc1=O
The melting point of the first is higher: > 250 °C for the first, 231 °C for the second.

First: C=C(C#N)S(=O)(=O)c1ccc(OC(F)(F)C(Cl)Cl)cc1
Second: CC#CCOc1ccc(S(=O)(=O)NC(CO)C(=O)OC)cc1 (configuration not stated)
The melting point of the first is higher: 89 to 90 °C for the first, 72 to 74 °C for the second.

First: C[C@H]1C[C@@H](Oc2cccc(NC(=O)c3ccc(F)cc3Cl)c2)CCN1C (relative stereo)
Second: N#Cc1ccc(C(=O)Nc2cccc(C(=O)O)c2)cc1
The melting point of the first is lower: 152 °C for the first, 267 °C for the second.

Compared with `c1ccc(NCC2CCCO2)cc1` (configuration not stated), `Oc1c(CN2CCSCC2)ncc2c1COC2c1ccccc1` (configuration not stated) is higher in melting point: 149 to 156 °C for the first, 185 °C for the second.

First: COc1ccc(CN2CCc3cc(OCc4ccccc4)c(OC)cc3C2)cc1OC
Second: COc1ccc(COCc2nnc3n2-c2ccc(Cl)cc2C(c2ccccc2)=NC3)cc1
The melting point of the first is lower: 98 to 99 °C for the first, 157 to 159 °C for the second.

First: CC(=O)CSc1nc2ccccc2cc1-c1ccc(F)cc1
Second: CC(C)c1oc(-c2ccc(F)cc2)nc1CC(=O)O
The melting point of the first is lower: 95 to 96 °C for the first, 137 to 138 °C for the second.

First: CCCCC(=O)c1c(-c2ccc3cc(OCC(=O)O)ccc3c2)oc2ccc(Cl)cc12
Second: CCCCc1oc2ccccc2c1-c1ccc(-c2ccc(OCC(=O)O)cc2)cc1
The melting point of the first is higher: 158 to 160 °C for the first, 126 to 128 °C for the second.

First: Cc1ccc(CS(=O)c2nc3cc4c(cc3[nH]2)CCC4)nc1 (configuration not stated)
Second: CCN1c2ncc(COc3ccccc3O)cc2C(=O)N(C)c2ccc(Cl)nc21
The melting point of the first is higher: 190 to 191 °C for the first, 172 to 173 °C for the second.

Compared with `O=C1CC(c2cccnc2)=NN1c1ccc(O)cc1`, `BrCc1nc(-c2ccccc2)nc2ccccc12` is lower in melting point: > 250 °C for the first, 110 °C for the second.

First: CC(=O)N1CCN(N=Cc2ccc(F)cc2)CC1
Second: COc1ccc(N2CCC(C(N)=O)CC2)cc1
The melting point of the first is lower: 88 to 90 °C for the first, 178 to 181 °C for the second.

Going from `CC1(C)Oc2ccc([N+](=O)[O-])cc2C(n2ccccc2=O)=C1CNC=O` to `O=C(NN=Cc1ccc([N+](=O)[O-])o1)c1ncn2ccccc12`, the melting point rises from 170 °C to 300 °C.

Compared with `CC(C)(C)OC(=O)CN1CCC2(CCNCC2)OC1=O`, `CC(C)(C)OC(=O)NN1CCNC1=O` is higher in melting point: 110 to 115 °C for the first, 186 to 188 °C for the second.

First: CCSc1nc(C#N)c(C#N)nc1C
Second: Cc1nc(C)c(C(C)(O)c2ccoc2)s1 (configuration not stated)
The melting point of the first is lower: 91.5 to 92.5 °C for the first, 104 to 105 °C for the second.

Compared with `CCn1cc(C(=O)O)c(=O)c2cc(F)c(N3CCC(CN)C3)c(F)c21` (configuration not stated), `CC(C)NCC1(O)CCN(c2c(F)cc3c(=O)c(C(=O)O)cn(C4CC4)c3c2F)C1` (configuration not stated) is lower in melting point: 219 to 221 °C for the first, 213 to 214 °C for the second.

First: CC(C)n1nc(-c2c(-c3ccccc3)nc(N)nc2-n2cncn2)ccc1=O
Second: Nc1cc(Sc2ccc(Cl)cc2)nc(-c2ccccc2)n1
The melting point of the first is higher: 266 to 268 °C for the first, 118 to 121 °C for the second.

First: COc1ccc(-c2ccc(C(=O)Nc3cc4ncc(CN5CCCC5)cc4cc3C)cc2F)cc1
Second: Cc1ccc2c(NCc3ccc(NC(=O)C4CCN(Cc5ccc(C(F)(F)F)cc5)CC4)cc3)nc(N(C)C)nc2c1
The melting point of the first is higher: 165 to 167 °C for the first, 126 to 128 °C for the second.

First: COC(=O)C1=C(C)N(C)C(C)C(C(=O)OC)=C1c1ccc(C(F)(F)F)cc1 (configuration not stated)
Second: CC(=O)NC(=O)Nc1ccc(OS(=O)(=O)c2cccc(C(F)(F)F)c2)cc1N
The melting point of the first is lower: 94 to 95 °C for the first, 182 °C for the second.

First: Cc1[nH]c(-c2ccccc2)c(NC(C)C)c1C(=O)c1ccccc1
Second: O=C(c1ccccc1)N1CC(c2ccccc2)c2ccccc21 (configuration not stated)
The melting point of the first is higher: 132 to 136 °C for the first, 127 to 129 °C for the second.

First: CCc1cc(-c2ccc(NC(=O)N3CCc4cc(SC)c(C(F)(F)F)cc43)cc2)ccn1
Second: Cc1ccc(NC(=O)c2ccc(CN3CCNC(C(N)=O)C3)c(C(F)(F)F)c2)cc1Nc1nccc(-c2cncnc2)n1 (configuration not stated)
The melting point of the first is lower: 158 to 161 °C for the first, 235 to 238 °C for the second.

First: O=C(CCc1cccnc1)NCCCCC1CCN(C(c2ccccc2)c2ccccc2)CC1
Second: CC1C(=O)N(c2ccc(Oc3ccccc3)cc2)C(=S)N1Cc1ccccc1 (configuration not stated)
The melting point of the first is higher: 139 °C for the first, 138 °C for the second.

First: CN(C(=O)CNc1nc(-c2ccc(C(F)(F)F)cc2)nc(-c2ccccc2)c1Cl)C1CC1
Second: COC(=O)c1cccc(-c2cccc(Oc3ccc(Cl)c(Cl)c3)n2)c1
The melting point of the first is higher: 188 to 189 °C for the first, 133 to 134 °C for the second.

First: O=[N+]([O-])c1ccccc1/C=C/c1ccccc1[N+](=O)[O-]
Second: CC(C)(c1ccc([N+](=O)[O-])cc1)c1ccc([N+](=O)[O-])cc1
The melting point of the first is higher: 195 to 196 °C for the first, 135 to 137 °C for the second.

First: O=C1C=C(c2ccccc2O)CC1
Second: CCC(=O)C1C(=O)CC(c2ccccc2Cl)CC1=O (configuration not stated)
The melting point of the first is higher: 162 to 165 °C for the first, 63 to 64 °C for the second.

First: CSCc1cn(C)c2c(Cl)cccc2c1=O
Second: CC(C)(C)OC(=O)[C@H](Cc1ccc(O)cc1)NC(=O)c1c(Cl)cccc1Cl
The melting point of the first is lower: 146 to 148 °C for the first, 177 to 178 °C for the second.

Compared with `NNC(=O)Nc1ccc(-n2ncn(-c3ccc(OCC(F)(F)C(F)F)cc3)c2=O)cc1`, `CCOC(=O)C(C(=O)OCC)C(=O)C(C)Oc1ccc(Oc2ccc(C#N)cc2)cc1` (configuration not stated) is lower in melting point: > 350 °C for the first, 42 to 46 °C for the second.

First: COc1ccc(C(CI)(OC)OC)cc1
Second: COC(=O)c1cc(OC)ccc1Oc1cc(Cl)ccc1[N+](=O)[O-]
The melting point of the first is lower: 54 to 55 °C for the first, 114 to 116 °C for the second.

First: CN(C)CCOc1ccc2c(c1)Cc1cc(OCCN(C)C)ccc1O2
Second: CN(CCOc1ccc(C=CC(=O)N2CCc3c([nH]c4ccccc34)C2c2ccc3c(c2)CCO3)cc1)C(=O)OC(C)(C)C (configuration not stated)
The melting point of the first is lower: 85 to 86.5 °C for the first, 110 °C for the second.

Compared with `CC(C)(C)NC(=O)c1nn(-c2ccc(F)cc2)c2c1C1CC3CC(C1)CC2C3`, `OCc1nn(-c2cccc(C(F)(F)F)c2)c2c1CCCC2` is lower in melting point: 214 to 216 °C for the first, 93 to 94 °C for the second.

Compared with `O=C(O)c1cc(OCC(F)(F)F)ccc1OCC(F)(F)F`, `COc1cc(-n2cc(C(=O)O)c(=O)c3cc(F)c(F)c(C)c32)ccc1F` is higher in melting point: 99 to 101 °C for the first, > 280 °C for the second.

First: COc1cc(Oc2ccc(C(=O)N(C3CCCCC3)C3CCCC3)cc2)cc(OC)c1OC
Second: O=C(c1ccc(C2CCCCC2)cc1)c1ccccn1
The melting point of the first is higher: 166 °C for the first, 44 to 45 °C for the second.

First: N#CC1CN1C(=O)CNC=O (configuration not stated)
Second: CC1CCC(=NN)c2ncc(C(N)=O)c(=O)n21 (configuration not stated)
The melting point of the first is lower: 51 to 56 °C for the first, 248 to 250 °C for the second.

Compared with `Fc1cc(CC2(Cc3ccncc3)c3ccccc3Oc3ncccc32)ccn1` (configuration not stated), `O=C(C(=O)c1ccc(F)cc1)c1ccncc1` is lower in melting point: 206 to 208 °C for the first, 84 to 86 °C for the second.

First: Nc1nc2c(ncn2C2CC(CO)C(O)C2F)c(=O)[nH]1 (configuration not stated)
Second: OC1CCN(c2ncc(-c3ccc(Cl)cc3)cn2)CC1
The melting point of the first is higher: 266 to 269 °C for the first, 168 to 170 °C for the second.

Compared with `CCOC(=O)Cc1csc(NC(=S)Nc2cc(Cl)ccc2C)n1`, `Cc1cccc(Nc2ccccc2C(=O)N(C)O)c1C` is lower in melting point: 177 to 179 °C for the first, 70 to 71 °C for the second.

First: Oc1c2c(nn1-c1ccccn1)CCCC2
Second: Cc1ccccc1C=C1CCc2c1nc1ccc(C(=O)O)cn1c2=O
The melting point of the first is lower: 121 to 122 °C for the first, 300 to 302 °C for the second.

First: CCOC(=O)c1c(O)c2ccccc2c2nc3ccccc3nc12
Second: CCCc1c(COc2ccc(Cc3nnn(CCCCCCc4nnn[nH]4)n3)cc2)ccc(C(C)=O)c1O
The melting point of the first is higher: 126 to 127 °C for the first, 110 to 113 °C for the second.

First: CN1CCC(=O)C(=C2SC=CS2)C1=O
Second: O=C1c2cc(F)ccc2OC[C@H]2CCCN12
The melting point of the first is higher: 148 to 153 °C for the first, 80 to 82 °C for the second.

First: O=C(NCCN1CCOCC1)c1ccc(Cl)cc1
Second: CC(=O)N(O)C(C)c1cc2ccccc2o1 (configuration not stated)
The melting point of the first is lower: 120 to 121 °C for the first, 130 to 132 °C for the second.

First: C=Cc1c(C)c2c(c(O)c1C/C=C1\CCCC1CC(=O)O)C(=O)OC2 (configuration not stated)
Second: COc1ccc2c(c1)C(C(=O)O)c1cccnc1CO2 (configuration not stated)
The melting point of the first is higher: 141 to 142 °C for the first, 140 to 141 °C for the second.

First: COC(=O)C(NC(=O)OC(C)(C)C)c1ccc(CC(=O)O)cc1 (configuration not stated)
Second: COC(=O)c1cccc(CC(C)NCC(O)c2ccc(O)c(CO)c2)c1 (configuration not stated)
The melting point of the first is higher: 123 to 124 °C for the first, 60 to 70 °C for the second.

First: Cc1ccc(C(=O)NCC(O)CO)cc1-n1c(C)cc(OCc2ccccc2CNC(=O)Nc2cc(C(C)(C)C)nn2-c2ccc(Cl)c(O)c2)c(Cl)c1=O (configuration not stated)
Second: O=C(OCc1ccccc1)N1CCc2c(sc3nc(CN4C(=O)CCC4=O)c(Cl)c(-c4ccc(OCc5ccccc5)cc4)c23)C1
The melting point of the first is lower: 169 to 171 °C for the first, 238 to 239 °C for the second.

First: CC(CC(Br)CO)C1CCC2C(O)CCCC12C (configuration not stated)
Second: Oc1cc2cc(C3CCCC3)sc2c(Cl)c1Cl
The melting point of the first is higher: 153 to 154 °C for the first, 62 to 63.5 °C for the second.

Compared with `CCCCN1C(=O)CC(C2C(=O)N(CCCC)C(=O)C2c2cc(C(C)(C)C)c(O)c(C(C)(C)C)c2)C1=O` (configuration not stated), `CN(C)Cc1c(-c2cc(C(C)(C)C)c(O)c(C(C)(C)C)c2)nc2n1CCS2` is higher in melting point: 151 to 153 °C for the first, 188 to 191 °C for the second.

First: FC(F)Oc1cc(Oc2ccnc(-c3cnccn3)n2)ccn1
Second: CCCCCCCNC(=O)n1nc(Oc2ncc(C(F)(F)F)cc2Cl)c(Cl)c1C
The melting point of the first is higher: 128 to 129 °C for the first, 67 to 68 °C for the second.

First: Cc1cc(C=NNC(N)=S)ncc1N
Second: CSc1c(C)c(-c2ncc(Cl)cc2F)nn1C
The melting point of the first is higher: 235 to 236 °C for the first, 61 to 64 °C for the second.
